Measurements as given in patent publication US5621133A (priority 1995, dated 1997).
Counter-ions that a name gives are not always drawn.

What was measured:
dopamine D-2 receptor = dopamine D-2 receptor (Rattus norvegicus, UniProt P61169); test: biochemical; format: binding; conditions: rat caudate, [125I]-p-aminophenylethyl spiroperidol; read-out: D-2 Ki
Protocol: Homogenized rat caudate was the source of the D-2 receptors. […] The molar affinity of the compound for the receptor binding site was calculated by the same method used for the D-1 receptor assay, assuming a competitive interaction between the compound and the radiolabeled ligand.

dopamine D-1 receptor [1] = conditions: for Intrinsic Activity (adenylate cyclase assay): dopamine = 100, goldfish retina or rat striatum; for EC50: read-out: EC50 (agonist activity in adenylate cyclase assay), tissue from goldfish retina or rat striatum
Protocol: In order to determine agonist activity, cell-free tissue homogenates are incubated in an ionic buffer solution containing ATP and the compound being evaluated. The tissue was obtained from either goldfish retina or rat striatum.

dopamine D-1 receptor [2] = molecular target: dopamine D-1 receptor (Rattus norvegicus, UniProt P18901); test: biochemical; conditions: D-1 Ki, rat caudate, [125I]SCH-23982
dopamine D-1 receptor (Rattus norvegicus, UniProt P18901), sequence (P18901 whole entry): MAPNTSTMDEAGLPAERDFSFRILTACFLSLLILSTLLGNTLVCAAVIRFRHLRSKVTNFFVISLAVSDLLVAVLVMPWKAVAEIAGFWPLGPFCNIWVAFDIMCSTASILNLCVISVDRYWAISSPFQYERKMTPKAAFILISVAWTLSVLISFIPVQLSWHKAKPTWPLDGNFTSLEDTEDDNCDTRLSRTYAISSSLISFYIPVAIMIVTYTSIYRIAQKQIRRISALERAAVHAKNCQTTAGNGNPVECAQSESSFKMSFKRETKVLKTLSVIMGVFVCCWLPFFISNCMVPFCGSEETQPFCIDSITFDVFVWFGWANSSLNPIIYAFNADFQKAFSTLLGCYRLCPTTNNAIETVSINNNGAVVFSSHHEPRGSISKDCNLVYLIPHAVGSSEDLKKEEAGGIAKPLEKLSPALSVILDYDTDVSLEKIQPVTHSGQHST
Text: The compounds compete with the radiolabeled ligand for occupancy of the receptors and the molar potency of each compound was quantified.
The Ki values are inversely proportional to the affinity of the compound for the receptor.

dopamine D-2 receptor, sequence (P61169 whole entry): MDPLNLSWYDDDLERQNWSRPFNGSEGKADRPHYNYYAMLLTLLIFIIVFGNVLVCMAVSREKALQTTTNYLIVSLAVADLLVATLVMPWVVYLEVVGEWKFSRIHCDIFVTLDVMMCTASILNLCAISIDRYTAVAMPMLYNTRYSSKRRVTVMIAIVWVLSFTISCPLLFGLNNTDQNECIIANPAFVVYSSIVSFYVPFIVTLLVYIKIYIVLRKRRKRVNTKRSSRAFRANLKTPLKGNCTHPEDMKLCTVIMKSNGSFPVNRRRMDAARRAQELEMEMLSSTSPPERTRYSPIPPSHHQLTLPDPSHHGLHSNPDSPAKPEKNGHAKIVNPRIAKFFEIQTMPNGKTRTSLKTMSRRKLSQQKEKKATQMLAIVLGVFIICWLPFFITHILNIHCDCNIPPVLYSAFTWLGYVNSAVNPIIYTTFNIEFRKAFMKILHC

Row | SMILES | Ki (dopamine D-2 receptor) | Intrinsic Activity (adenylate cyclase assay) (dopamine D-1 receptor [1]) | EC50 (dopamine D-1 receptor [1]) | Ki (dopamine D-1 receptor [2])
1 | C=CCC[C@@H]1Cc2c(ccc(O)c2O)[C@H](CN)O1 (relative stereo) [Example 73] | 34000 nM | 138 | 160 nM | 64 nM
2 | CCC(C)C(C)[C@@H]1Cc2c(ccc(O)c2O)[C@H](CN)O1 (stereo partly drawn) [Example 72] | 8200 nM | 80 | 170 nM | 15 nM
3 | NC[C@H]1O[C@@H](c2cccc(C(F)(F)F)c2)Cc2c1ccc(O)c2O (relative stereo) [Example 99] | 8900 nM | 134 | 5 nM | 22 nM
4 | NC[C@H]1Cc2c(ccc(O)c2O)[C@@H](CN)O1 (relative stereo) [Example 154, [1,3-cis]1,3-Bis(aminomethyl)-3,4-dihydro-5,6-dihydroxy-1H-2-benzopyran Dihydrochloride] | 17000 nM | 95 | 100 nM | 1400 nM
5 | CCCC(=O)NC[C@@H]1Cc2c(ccc(O)c2O)[C@H](CN)O1 (relative stereo) [Example 169] | > 10000 nM | 150 | 200 nM | 8000 nM
6 | NCC1CC2(CCCC2)Cc2c1ccc(O)c2O (stereo not drawn) [Example 196] | > 10000 nM | 80 | 1100 nM | 6000 nM
7 | NCC1CC2(CCCCCCCC2)Cc2c1ccc(O)c2O (stereo not drawn) [Example 236] | > 10000 nM | 36 | 700 nM | 4400 nM
8 | CC(C)C(=O)Oc1ccc2c(c1OC(=O)C(C)C)CC(c1ccccc1)C=C2CN (stereo not drawn) [Example 18] | > 10000 nM | 46 | 1500 nM | 1300 nM
9 | NCC1=CC2(CCCCCCCCC2)Cc2c1ccc(O)c2O [Example 234] | > 10000 nM | 53 | 2700 nM | 3900 nM
10 | CNC[C@H]1C[C@@H](c2ccccc2)Cc2c1ccc(O)c2O (relative stereo) [Example 150, [1,3-cis]5,6,Dihydroxy-1-(N-methyl)aminomethyl-3-phenyl-1,2,3,4-tetrahydro-naphthalene] | 12000 nM | 102 | 6 nM | 25 nM
11 | CCCCCCCCCC[C@@H]1Cc2c(ccc(O)c2O)[C@H](CN)O1 (relative stereo) [Example 65] | 16000 nM | 91 | 320 nM | 14000 nM
12 | NCC1CC2(CCCCCCCCC2)Cc2c1ccc(O)c2O (stereo not drawn) [Example 237] | > 10000 nM | 34 | 1900 nM | 6500 nM
13 | CNC[C@H]1O[C@@H](CCN)Cc2c1ccc(O)c2O (relative stereo) [Example 173] | 14000 nM | 63 | 390 nM | 3600 nM
14 | C#CCNC[C@H]1O[C@@H](C2CCCCC2)Cc2c1ccc(O)c2O (relative stereo) [Example 118] | 6700 nM | 87 | 56 nM | 2500 nM
15 | Oc1ccc2c(c1O)C[C@H](c1ccccc1)O[C@@H]2[C@H]1CCCN1 [Example 127] | > 10000 nM | 55 | 520 nM | 1300 nM
16 | COC(=O)Oc1ccc2c(c1OC(=O)OC)CC(c1ccccc1)C=C2CN (stereo not drawn) [Example 23] | > 10000 nM | 65 | 1100 nM | 500 nM
17 | NC[C@@H]1O[C@H](C2CCCCC2)Cc2c1ccc1c2OC2(CCCCC2)O1 (relative stereo) [Example 63] | > 10000 nM | 43 | 710 nM | 71000 nM
18 | CNCC1OC2(CCOCC2)Cc2c1ccc(O)c2O (stereo not drawn) [Example 143] | > 10000 nM | 94 | 1100 nM | 1200 nM
19 | NC[C@H]1O[C@@H](CN2CCOCC2)Cc2c1ccc(O)c2O (relative stereo) [Example 157] | 16000 nM | 111 | 520 nM | 1300 nM
20 | NCC1=CC2(CCCCCCC2)Cc2c1ccc(O)c2O [Example 191] | > 10000 nM | 58 | 1500 nM | 1100 nM
21 | NC[C@@H]1S[C@H](c2ccccc2)Cc2c1ccc(O)c2O (relative stereo) [Example 186, [1,3-cis]1-Aminomethyl-3-phenyl-3,4-dihydro-5,6-dihydroxy-1H-2-benzothiopyran Hydrochloride] | 34000 nM | 95 | 1300 nM | 1900 nM
22 | NCC1CC2(CCCCCCC2)Cc2c1ccc(O)c2O (stereo not drawn) [Example 197] | > 5000 nM | 56 | 180 nM | 880 nM
23 | Oc1ccc2c(c1O)C[C@@H](c1ccccc1)O[C@H]2[C@H]1CCCN1 [Example 123] | > 10000 nM | 61 | 770 nM | 8200 nM
24 | NCC1OC2(CCCCC2)Cc2c1ccc(O)c2O (stereo not drawn) [Example 52] | 6200 nM | 65 | 71 nM | 900 nM
25 | Cc1cc2c(c(O)c1O)C[C@@H](C1CCCCC1)O[C@H]2CN (relative stereo) [Example 177, [1,3-cis]1-Aminomethyl-3-cyclohexyl-3,4-dihydro-5,6-dihydroxy-7-methyl-1H-2-benzopyran Hydrochloride] | 6600 nM | 62 | 170 nM | 130 nM

Now from value to compound:

Row | Ki (dopamine D-2 receptor) | Intrinsic Activity (adenylate cyclase assay) (dopamine D-1 receptor [1]) | EC50 (dopamine D-1 receptor [1]) | Ki (dopamine D-1 receptor [2]) | SMILES
26 | 730 nM | 56 | 30 nM | 1100 nM | CC(C)(C)c1ccc(OC[C@H]2Cc3c(ccc(O)c3O)[C@@H](CN)O2)cc1 (relative stereo) [Example 57]
27 | 640 nM | 106 | 870 nM | 86 nM | C=CCC[C@H]1Cc2c(ccc(O)c2O)[C@@H](CNC)O1 (relative stereo) [Example 132]
28 | 700 nM | 43 | 480 nM | 630 nM | CN1CCC2=C(C1)c1ccc(O)c(O)c1CC21CCCCC1 [Example 212]
29 | 1500 nM | 113 | 8.4 nM | 60 nM | CNC[C@H]1O[C@@H](CC2CCCCC2)Cc2c1ccc(O)c2O (relative stereo) [Example 140]
30 | 2000 nM | 105 | 840 nM | 100 nM | CC(C)=CCCC(C)[C@@H]1Cc2c(ccc(O)c2O)[C@H](CN)O1 (stereo partly drawn) [Example 74]
31 | 920 nM | 151 | 7 nM | 730 nM | CCCC[C@@H]1Cc2c(ccc(O)c2O)[C@H](CN)O1 (relative stereo) [Example 79]
32 | 810 nM | 124 | 180 nM | 530 nM | CC(C)C(=O)NC[C@H]1Cc2c(ccc(O)c2O)[C@@H](CN)O1 (relative stereo) [Example 171]
33 | 2600 nM | 90 | 320 nM | 650 nM | NC[C@@H]1O[C@H](C2CCCCC2)CCc2c1ccc(O)c2O (relative stereo) [Example 176, [1,3-cis]1-Aminomethyl-3-cyclohexyl-6,7-dihydroxy-1,3,4,5-tetrahydro-2-benzoxepin Hydrochloride]
34 | 5500 nM | 90 | 14 nM | 100 nM | CCCCCC[C@@H]1Cc2c(ccc(O)c2O)[C@H](CN)O1 (relative stereo) [Example 68]
35 | 170 nM | 58 | 450 nM | 1300 nM | CC(=O)NC[C@H]1Cc2c(ccc(O)c2O)[C@@H](CN)O1 (relative stereo) [Example 161]
36 | 2300 nM | 64 | 240 nM | 230 nM | CNCC1OC2(CCCCCCCC2)Cc2c1ccc(O)c2O (stereo not drawn) [Example 224]
37 | 250 nM | 96 | 200 nM | 3600 nM | NC[C@H]1O[C@@H](CNC(=O)c2ccccc2)Cc2c1ccc(O)c2O (relative stereo) [Example 164]
38 | 2800 nM | 25 |  | 490 nM | Oc1ccc2c(c1O)CC(CC1CCCC1)C1=C2CNCC1 (stereo not drawn) [Example 209]
39 | 1100 nM | 161 | 8 nM | 14 nM | NC[C@@H]1O[C@H](c2ccc(I)cc2)Cc2c1ccc(O)c2O (relative stereo) [Example 80]
40 | 700 nM | 54 | 50 nM | 11000 nM | NC[C@@H]1O[C@H](CN2Cc3ccccc3C2=O)Cc2c1ccc(O)c2O (relative stereo) [Example 87]
41 | 3900 nM | 98 | 6 nM | 61 nM | NC[C@H]1C[C@@H](c2cccc(O)c2)Cc2c1ccc(O)c2O (relative stereo) [Example 42]
42 | 1600 nM | 79 | 68 nM | 26 nM | Oc1ccc2c(c1O)CC1(CCCCCC1)C1=C2CNCC1 [Example 206]
43 | 2.1 nM | 125 | 120 nM | 310 nM | NC[C@H]1O[C@@H](CNC(=O)c2ccc(Br)cc2)Cc2c1ccc(O)c2O (relative stereo) [Example 167]
